Data set [1] has as its system S. aureus. Briefly: Time-kill / light-dose experiments, S. aureus. In kind it is cell-based, Staphylococcus aureus. To be noted: 0.625 to 5 μM of MM, 405 nm. As to the method:
(§1) Serial dilutions of irradiated cell suspensions were prepared in PBS. A volume of 10 AL of the appropriate serial dilutions was spot-plated onto LB agar plates. Following overnight incubation at 30 or 37 ° C, depending on the strain, bacterial viability was assessed as colony forming units (CFU) per mL. Results were expressed as log (N/NO) whereby N is the CFU mL^−1 at each irradiation time point and NO is the initial CFU mL^−1 of the corresponding sample. Only dilutions that yielded 10-100 colonies were counted.

Data set [2] deals with E. coli. Briefly: Time-kill / light-dose experiments, E. coli. In kind it is cell-based, Escherichia coli. To be noted: E. coli; for light dose for complete eradication: highest concentration of MM (5 μM), 405 nm. As to the method: as §1
For data set [3], the system named is human embryonic kidney cells (HEK). Kind of data set: Toxicity to HEK cells (CellTiter-Glo). Type of data set: cell-based. Particulars: HEK293, 5 min, 405 nm light 146 mW cm^−2, 5 min, read-out: IC50 (HEK viability). The protocol:
(§2) Biocompatibility of MM with primary NHDF and HEK293T cells was assessed using the CellTiter-Glo® Luminescent Cell Viability Assay (Promega), per the manufacturer's instructions. The MM concentrations that reduced cell viability by 50% (IC50) were identified and the therapeutic index was calculated as the ratio between the IC50 and the MIC at a light intensity of 146 mW cm^−2.

Data set [4] deals with normal human dermal fibroblasts (NHDFs). Kind of data set: Toxicity to NHDF (CellTiter-Glo). In kind it is cell-based. Particulars: 5 min, 405 nm light 146 mW cm^−2, 5 min, read-out: IC50 (NHDF viability). The protocol:
as §2

In data set [5] the test system is S. aureus. Kind of data set: MIC, S. aureus. In kind it is cell-based, Staphylococcus aureus. To be noted: for MIC of MM: S. aureus; for MIC: Staphylococcus aureus, read-out: MIC of MM. The method, boiled down: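 Cell suspensions were exposed to compound at 0.3125-40 μM for 30 min in the dark, with agitation, at 30 or 37 °C depending on strain. Each sample was then irradiated with 405 nm light at 146 mW cm^−2 for 5 min (43.8 J cm^−2), inoculated into MHB and incubated overnight. MIC was read as the lowest concentration without visible growth, alongside non-irradiated controls.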

A short description of data set [6]: Estimated rotation rate after light activation. Particulars: based on known motors with similar core skeletons.
The next data set has as its system P. aeruginosa. Kind of data set: MIC, P. aeruginosa. Type of data set: cell-based, Pseudomonas aeruginosa. Particulars: Pseudomonas aeruginosa, read-out: MIC of MM. The protocol: The appropriate volume of an MM stock at 8 mM necessary to achieve a concentration ranging from 0.3125 to 40 μM was pipetted into a 2 mL microcentrifuge tube to which 1 mL of cell suspension prepared as previously described was added. Corresponding negative controls (DMSO only) were prepared in the same way. The mixture was gently mixed by pipetting and incubated in the dark at 30 or 37 ° C, depending on the strain, for 30 min with agitation (220 rpm). Afterward, MM- or DMSO-treated cells were dispensed in one well of a 24-well plate positioned in the center of the light beam (405 nm LED Light, Prizmatix, UHP—F-5-405) placed at the appropriate distance necessary to achieve the desired light intensity of 304 mW cm-2, 146 mW cm2 or 87 mW cm2, as measured with a handheld digital power meter console coupled to an S415C thermal power sensor head (Thorlabs, Newton, MA, USA). The temperature during irradiation was monitored using a thermocouple probe (Model SC-TT-K-30-36-PP; Omega Engineering, Inc., Stanford, CT, USA). Samples were agitated during irradiation. Dark controls were prepared as previously described except that no irradiation was provided.
For MIC determination, samples treated with a range of concentrations of the different MM, as described above and were irradiated one at a time for 5 min at 146 mW cm^−2 (43.8 J cm^−2), after which irradiated aliquots were collected and inoculated into 1 mL MHB in a 2 mL microcentrifuge tube. Samples were incubated overnight at 30 or 37 ° C, depending on the strain, without agitation. Corresponding non-irradiated samples and negative controls (without bacteria) were also included. The following day, cultures were inspected for growth and the MIC was identified. The experimental procedure used to determine the MIC of visible light-activated MMs is schematically depicted in FIG. 26.

The test system of data set [7] is E. coli. Kind of data set: MIC, E. coli. Type of data set: cell-based, Escherichia coli BW25113. To be noted: Escherichia coli, read-out: MIC of MM.
The test system of data set [8] is E. coli. Kind of data set: Tetracycline uptake. In kind it is cell-based, Escherichia coli. To be noted: 0.5×MIC MM pre-treatment, vs DMSO. As to the method:
The ability of pre-treatment with subinhibitory concentrations of MMs to potentiate antibiotic killing was further evaluated by monitoring the fluorescence of tetracycline uptake. […] Irradiated cell suspensions were then collected, and tetracycline (128 μg mL^−1 final concentration) was added. A volume of 100 μL per well of tetracycline amended cell suspension was transferred to a black 96-well plate and fluorescence was read every 5 min for 60 min at room temperature in a microplate reader (Ex: 405 nm, Em: 535 nm) (BioTek Instruments Inc, Winooski, VT, USA). Results were expressed as RFU corrected for fluorescence in the absence of cells.

A further data set concerns C. albicans. Briefly: Development of resistance / cross-resistance in C. albicans (serial passage, single-step). Particulars: Candida albicans, read-out: MIC of MM in antifungal-resistant C. albicans. Type of data set: cell-based. The protocol:
FIG. 3: Evaluation of the development of resistance to MMs in C. albicans. For the stepwise resistance assessment by serial passage (left), C. albicans cell suspensions were treated with increasing concentrations (0.3125-160 μM) of different MMs (8 mM stock in DMSO) and then irradiated with […] light (87.6 J cm^−2). The irradiated cell suspensions were then inoculated in MOPS-buffered RPMI 1640 (pH 7.0, Sigma, MO, USA), and the tubes were incubated at 30 ° C for 48 h. […] Cells able to grow at 0.5×MIC of each MM were collected by centrifugation (5,000×g, 5 min), resuspended and re-challenged with a range of MM concentrations and irradiated with 405 nm light (87.6 J cm^−2). The procedure was repeated for a total of 20 consecutive cycles. […] Irradiated cells were then inoculated in YPD and incubated at 30 °C. However, MM-resistant colonies could not be recovered even after 14 days of incubation. Created with Biorender.com.
A modified version of the broth microdilution serial passage method was used to assess the development of resistance to visible-light-activated MMs in C. albicans (Kapoor et al., 2019). C. albicans cell suspensions were prepared and irradiated as previously described for the determination of MM MIC. Cells were then inoculated into buffered RPMI 1640 and incubated at 30 ° C for 48 h. Cells able to grow at 0.5×MIC of MM were centrifuged (5,000×g, 5 min), resuspended, rechallenged with different MM concentrations, and irradiated with 405-nm light (87.6 J cm^−2). The procedure was repeated for 20 consecutive cycles. The antifungals AMB, CAS, and FLC were processed similarly, except that light was omitted, and used as controls.

The test system of data set [9] is persister cells of P. aeruginosa. Kind of data set: Persister eradication, P. aeruginosa. Type of data set: cell-based, Pseudomonas aeruginosa. Particulars: 1×MIC, 405 nm.
Where [10] appears, read: E. coli, Table 9, 405 nm light 43.8 J cm^−2.

Where two headings read alike, the source gives them in different places.

As usually defined, the IC50 is the concentration that gives 50% inhibition. Usually MIC stands for the least concentration at which growth counts as inhibited. Take `C[C@@H]1Cc2ccc3ccccc3c2/C1=C1\c2ccccc2Sc2cc(NCCN)ccc21` (racemic) [MM 6, N^1-(9-(2-methyl-2,3-dihydro-1H-cyclopenta[a]naphthalen-1-ylidene)-9H-thioxanthen-3-yl)ethane-1,2-diamine]: the “light dose for complete eradication” value is 16 J cm^−2 in the data set on S. aureus [1] and “at least 40 J cm^−2” with E. coli [2]. Besides, the “time to reduce cell number to limit of detection” value with E. coli [2] (2×MIC, 146 mW cm^−2 405 nm) is reported as 4 min. In addition, the IC50 in data set [3] was found to be 5 µM; in data set [4], 10 µM. Also, the “MIC of MM” value in the data set on S. aureus [5] (Table 9, 405 nm light 43.8 J cm^−2) was 0.078. Further, the minimum inhibitory concentration (MIC) came to 0.078 µM in the data set with S. aureus [5], 0.625 µM in the data set on P. aeruginosa, 2.5 µM in the data set on E. coli [7] (setting [10]) and 2.5 µM in the data set on C. albicans. The “estimated rotation rate after light activation” value in data set [6] is reported as 3 MHz. The intracellular tetracycline fluorescence entry with E. coli [8] was “substantial increase in intracellular tetracycline fluorescence”.

With `C[C@@H]1Cc2ccc3ccccc3c2/C1=C1\c2ccccc2Sc2cc(NCCN(C)C)ccc21` [MM 1, N^1N^1-dimethyl-N^2-(9-(2-methyl-2,3-dihydro-1H-cyclopenta[a]naphthalen-1-ylidene)-9H-thioxanthen-3-yl) ethane-1,2-diamine], the “light dose for complete eradication” value in the data set with S. aureus [1] was 16 J cm^−2; with E. coli [2] it was “at least 40 J cm^−2”. The IC50 in data set [3] and in [4] was 5 µM each time. For the same compound, the “MIC of MM” value in the data set on S. aureus [5] (405 nm light) is 0.156 µM. The MIC with S. aureus [5] is 0.156 µM; with P. aeruginosa, 0.625 µM; in the data set on E. coli [7] (E. coli BW25113, 405 nm light 43.8 J cm^−2) it was 1.25 µM; in the data set on E. coli [7] (setting [10]) it was 1.25 µM; in the data set with C. albicans, 1.25 µM. In addition, the “estimated rotation rate after light activation” value in data set [6] is reported as 3 MHz. The intracellular tetracycline fluorescence result in the data set with E. coli [8] is given as “substantial increase in intracellular tetracycline fluorescence”. For the same compound, in data set [9], the “time to reduce persister cells to limit of detection” value turned out to be 2 min.
